Measured values reported in patent US20040133938A1, “Use of lipoic acid in plant culture media” (priority 2002, published 2004).

Test system: MicroTom cotyledon explants
Experiment: MicroTom Agrobacterium transformation: shoot regeneration, transformation efficiency, escapes
Type: cell-based, Lycopersicon esculentum
Conditions: for % of explants producing shoots (>1 cm in length): selection medium; for % of shoots that were escapes (did not root on selection medium): kanamycin selection
Procedure: This example describes the use of lipoic acid in an Agrobacterium-based tomato transformation process. MicroTom (a cultivar of tomato species: Lycopersicon esculentum) seeds from Tomato Growers (Ball Seed Co., West Chicago, Ill. USA) were surface-sterilized by first soaking for 10 min in sterile deionized water, removing the water, and then adding enough 70% ethanol to immerse the seeds for 1 min while stirring vigorously and then aspirating the ethanol. The seeds were rinsed 2× with sterile deionized water and then soaked in 25% Chlorox with 1-2 drops of Tween 20 for 10 min while stirring frequently. The seeds were rinsed 3× with sterile deionized water. The seeds were germinated in phytatrays containing Davis Germination medium (4.3 g/L MS salts, 2 ml/L Gamborg's B-5 500× salts, 20 g/L sucrose and 10 g/L agar) (approximately 120 seeds/container), and the phytatrays were wrapped with aluminum foil. The phytatray cultures were maintained at 28° C. under the dark for 5 days. After 5 days, the phytatray cultures were unwrapped and grown at 24° C. under a 16 h photoperiod for about 44 h.
Agrobacterium containing the desired transformation vector with a selectable marker (nptII for kanamycin selection as shown in FIG. 1) was streaked on a fresh LBssck plate (LB, 200 mL; spectinomycin (50 mg/mL stock), 200 μL; streptomycin (50 mg/mL stock), 200 μL; kanamycin (50 mg/mL stock), 200 μL; chloramphenicol (CAP, 25 mg/mL stock), 200 μL) from a frozen glycerol stock, and grown at about 28° C. for 3-4 days. One day before inoculation, a loopful of the bacterium cells from the freshly streaked plate was inoculated into 2 mL of LB+(LB, 200 mL; spectinomycin or streptomycin (50 mg/mL stock), 400 μL; kanamycin (50 mg/mL stock), 200 μL; chloramphenicol (CAP, 25 mg/mL stock), 200 μL) without acetosyringone, and grown at about 28° C. on a rotator at the speed between medium to high overnight. Then, 0.2 mL of the overnight bacterium culture was inoculated into 2 mL of LB+0.2 mM acetosyringone, and grown at about 28° C. on a rotator at the speed between medium to high for 4 hours.
Four hours after the sub-culture, the bacterium growth phase was measured using the spectrophotometer. The final O.D.660 of the bacterium culture was between about 0.9 and 1.4. The bacterium culture was diluted by adding the bacterium culture to TXD medium in a sterile tube based on the volume to get the working O.D.660=0.1.
Cotyledon explants were isolated from seedlings 7 days after sowing seeds on Davis Germination medium. Cotyledon explants were prepared by bathing them in 6 mL of TXD liquid medium (4.3 g/L MS salts, 2 mL/L Gamborg's B-5 500× salts, 4 mg/L pCPA (p-chlorophenoxyactic acid), 0.005 mg/L kinetin, and 30 g/L sucrose) to prevent desiccation and trimming them at both ends using a #15 feather blade. Immediately after the trimming, the cotyledon explants were gently placed on “feeder plates” containing UC2PC medium (2.2 g/L MS salts, 2.2 mL/L, Gamborg's B-5 500× salts, 0.2 mg/L 2,4-D, 4 mg/L pCPA, 0.1 mg/L kinetin, 30 g/L sucrose, 0.2 g/L potassium phosphate, 10 g/L agar, 8 mL/L acetosyringone (4.91 mg/mL), and 4 mL galacturonic acid (53.05 mg/mL)). The “feeder plates” are made by overlaying 2 mL of tobacco suspension cells and a sterile Whatman filter on the plates containing UC2PC medium. The cotyledon explants were gently poked with a sharp forceps (ASIM5311, Stainless French, made in Switzerland). Usually six to ten pokes were made per explant depending the size of cotyledons. Right after poking, the cotyledons were inoculated with Agrobacterium containing pMON15715 (FIG. 1) by adding 3 mL of the adjusted Agrobacterium solution on top of the cotyledons. The plates were incubated for 10 min at room temperature, and the Agrobacterium solution was aspirated with a sterile pipette. The cotyledons were then co-cultured for 2 days at 23-24° C. under a 16-h photoperiod. […]

Structure (SMILES): O=C(O)CCCCC1CCSS1 (stereo not drawn) [lipoic acid, 1,2-dithiolane-3-pentanoic acid]
- % of explants producing shoots (>1 cm in length) (5 μM lipoic acid, 45 explants): 68.9%
- % of resp. explant producing transgenic plants (5 μM lipoic acid, MicroTom): 78.6%
- % of transgenic plants/shoot (5 μM lipoic acid, MicroTom): 43.9%
- Efficiency (stable transformation efficiency, percentage of transgenic plants produced per explant) (5 μM lipoic acid, MicroTom): 155.1%
- No. of total shoots produced/explant (5 μM lipoic acid, MicroTom): 3.53
- No. of total shoots produced/resp. explant (5 μM lipoic acid, MicroTom): 4.93
- No. of transgenic plants produced/resp. explant (5 μM lipoic acid, MicroTom): 2.25
- TE (percentage of transgenic events produced per explant) (5 μM lipoic acid, MicroTom): 78.3%
- % of shoots that were escapes (did not root on selection medium) (5 μM lipoic acid): 54.6%
- % of explants producing shoots (>1 cm in length) (10 μM lipoic acid, 46 explants): 67.4%
- % of resp. explant producing transgenic plants (10 μM lipoic acid, MicroTom): 74.2%
- % of transgenic plants/shoot (10 μM lipoic acid, MicroTom): 42.9%
- Efficiency (stable transformation efficiency, percentage of transgenic plants produced per explant) (10 μM lipoic acid, MicroTom): 178.7%
- No. of total shoots produced/explant (10 μM lipoic acid, MicroTom): 4.17
- No. of total shoots produced/resp. explant (10 μM lipoic acid, MicroTom): 6.19
- No. of transgenic plants produced/resp. explant (10 μM lipoic acid, MicroTom): 2.65
- TE (percentage of transgenic events produced per explant) (10 μM lipoic acid, MicroTom): 94.1%
- % of shoots that were escapes (did not root on selection medium) (10 μM lipoic acid): 58.3%
- % of explants producing shoots (>1 cm in length) (50 μM lipoic acid, 49 explants): 61.2%
- % of resp. explant producing transgenic plants (50 μM lipoic acid, MicroTom): 67.9%
- % of transgenic plants/shoot (50 μM lipoic acid, MicroTom): 48.0%
- Efficiency (stable transformation efficiency, percentage of transgenic plants produced per explant) (50 μM lipoic acid, MicroTom): 144.1%
- No. of total shoots produced/explant (50 μM lipoic acid, MicroTom): 3.00
- No. of total shoots produced/resp. explant (50 μM lipoic acid, MicroTom): 4.83
- No. of transgenic plants produced/resp. explant (50 μM lipoic acid, MicroTom): 2.35
- TE (percentage of transgenic events produced per explant) (50 μM lipoic acid, MicroTom): 76.4%
- % of shoots that were escapes (did not root on selection medium) (50 μM lipoic acid): 55.4%
- % of explants producing shoots (>1 cm in length) (100 μM lipoic acid, 43 explants): 25.6%
- % of resp. explant producing transgenic plants (100 μM lipoic acid, MicroTom): 93.8%
- % of transgenic plants/shoot (100 μM lipoic acid, MicroTom): 50.6%
- Efficiency (stable transformation efficiency, percentage of transgenic plants produced per explant) (100 μM lipoic acid, MicroTom): 112.1%
- No. of total shoots produced/explant (100 μM lipoic acid, MicroTom): 2.21
- No. of total shoots produced/resp. explant (100 μM lipoic acid, MicroTom): 8.64
- No. of transgenic plants produced/resp. explant (100 μM lipoic acid, MicroTom): 4.38
- TE (percentage of transgenic events produced per explant) (100 μM lipoic acid, MicroTom): 49.7%
- % of shoots that were escapes (did not root on selection medium) (100 μM lipoic acid): 57.1%
- effect on total transgenic and non-transgenic shoot induction (lipoic acid from 5 μM to 50 μM): no inhibition effect
- increase of the stable transformation efficiency (summary, MicroTom, from 40%): 6.5 fold
- stable transformation efficiency (summary, MicroTom, with lipoic acid): up to 260%
